Key:
Assay type in all cases: cell-based
Strep dysgalaciae SPD1 = test: MIC, veterinary bacteria; details: veterinary bacteria (Table 2)
[1] = system: Erysipelothrix rhusiopathiae NCTC 8163; test: MIC, veterinary bacteria; details: veterinary bacteria (Table 2)
Ps aeruginosa 10662 = test: MIC, human bacteria, serial dilution in nutrient agar; details: nutrient agar containing 5% 'chocolated' horse blood
Staph aureus Russell = test: as above; details: nutrient agar containing 5% 'chocolated' horse blood
[2] = system: Haemophilus influenzae Q1; test: as above; details: nutrient agar containing 5% 'chocolated' horse blood
M. hyorhinis ATCC 25021 = test: MIC, anti-mycoplasmal, Friis broth solidified with 0.9% agarose; details: inoculum 10^3 to 10^5 C.F.U., 6 days incubation at 37°C
Strep pyogenes C 2761 = test: MIC, human bacteria, serial dilution in nutrient agar; details: nutrient agar containing 5% 'chocolated' horse blood
[3] = system: Staph aureus 152 (pen sens); test: MIC, veterinary bacteria; details: veterinary bacteria (Table 2)
M. suipneumoniae JF 435 = test: MIC, anti-mycoplasmal, Friis broth solidified with 0.9% agarose; details: inoculum 10^3 to 10^5 C.F.U., 6 days incubation at 37°C
K aerogenes A = test: MIC, human bacteria, serial dilution in nutrient agar; details: nutrient agar containing 5% 'chocolated' horse blood
M. suipneumoniae HK(2) = test: MIC, anti-mycoplasmal, Friis broth solidified with 0.9% agarose; details: inoculum 10^3 to 10^5 C.F.U., 6 days incubation at 37°C
[4] = system: Strep suis (group D) SPS11; test: MIC, veterinary bacteria; details: veterinary bacteria (Table 2)
Bacillus subtilis 6633 = test: MIC, human bacteria, serial dilution in nutrient agar; details: nutrient agar containing 5% 'chocolated' horse blood
[5] = system: Haemophilus influenzae Wy21; test: as above; details: nutrient agar containing 5% 'chocolated' horse blood
M. gallisepticum S6 = test: MIC, anti-mycoplasmal, Friis broth solidified with 0.9% agarose; details: inoculum 10^3 to 10^5 C.F.U., 6 days incubation at 37°C
Staph aureus W2827 = test: MIC, human bacteria, serial dilution in nutrient agar; details: nutrient agar containing 5% 'chocolated' horse blood
E coli NCTC 10418 [6] = test: MIC, veterinary bacteria; details: veterinary bacteria (Table 2)
S dublin S7 = test: MIC, veterinary bacteria; details: veterinary bacteria (Table 2)
S typhimurium S18 = test: MIC, veterinary bacteria; details: veterinary bacteria (Table 2)
M. bovis NCTC 10131 = test: microbe, parasite or virus in culture; details: M. bovis NCTC 10131; inoculum 10^3 to 10^5 C.F.U., 6 days incubation at 37°C
[7] = system: M. suipneumoniae J2206/183b; test: MIC, anti-mycoplasmal, Friis broth solidified with 0.9% agarose; details: inoculum 10^3 to 10^5 C.F.U., 6 days incubation at 37°C
E coli NCTC 10418 [8] = test: MIC, human bacteria, serial dilution in nutrient agar; details: nutrient agar containing 5% 'chocolated' horse blood
[9] = system: M. suipneumoniae ATCC 25095; test: MIC, anti-mycoplasmal, Friis broth solidified with 0.9% agarose; details: inoculum 10^3 to 10^5 C.F.U., 6 days incubation at 37°C
Strep pyogenes B 2788 = test: MIC, human bacteria, serial dilution in nutrient agar; details: nutrient agar containing 5% 'chocolated' horse blood
[10] = system: M. suipneumoniae NCTC 10110; test: MIC, anti-mycoplasmal, Friis broth solidified with 0.9% agarose; details: inoculum 10^3 to 10^5 C.F.U., 6 days incubation at 37°C
Strep pneumoniae CN33 = test: MIC, human bacteria, serial dilution in nutrient agar; details: nutrient agar containing 5% 'chocolated' horse blood
[11] = system: Staph aureus B4 (pen resis); test: MIC, veterinary bacteria; details: veterinary bacteria (Table 2)
M. suipneumoniae UCD 1 = test: MIC, anti-mycoplasmal, Friis broth solidified with 0.9% agarose; details: inoculum 10^3 to 10^5 C.F.U., 6 days incubation at 37°C
Strep uberis SPU1 = test: MIC, veterinary bacteria; details: veterinary bacteria (Table 2)
Past multocida PA1 = test: MIC, veterinary bacteria; details: veterinary bacteria (Table 2)
[12] = system: Pasteurella multocida 1633; test: MIC, human bacteria, serial dilution in nutrient agar; details: nutrient agar containing 5% 'chocolated' horse blood
Staph aureus Oxford [13] = test: as above; details: nutrient agar containing 5% 'chocolated' horse blood
M. hyorhinis ATCC 23234 = test: MIC, anti-mycoplasmal, Friis broth solidified with 0.9% agarose; details: inoculum 10^3 to 10^5 C.F.U., 6 days incubation at 37°C
Bord bronchisptica BO9 = test: MIC, veterinary bacteria; details: veterinary bacteria (Table 2)
Strep pyogenes A 64/848 = test: MIC, human bacteria, serial dilution in nutrient agar; details: nutrient agar containing 5% 'chocolated' horse blood
M. suipneumoniae NB12 = test: MIC, anti-mycoplasmal, Friis broth solidified with 0.9% agarose; details: inoculum 10^3 to 10^5 C.F.U., 6 days incubation at 37°C
M. dispar NCTC 10125 = test: as above; details: inoculum 10^3 to 10^5 C.F.U., 6 days incubation at 37°C
M. pneumoniae ATCC 15492 = test: as above; details: inoculum 10^3 to 10^5 C.F.U., 6 days incubation at 37°C
E coli ESS = test: MIC, human bacteria, serial dilution in nutrient agar; details: nutrient agar containing 5% 'chocolated' horse blood
Strep faecalis I = test: as above; details: nutrient agar containing 5% 'chocolated' horse blood
[14] = system: M. bovigenitalium ATCC 14173; test: MIC, anti-mycoplasmal, Friis broth solidified with 0.9% agarose; details: inoculum 10^3 to 10^5 C.F.U., 6 days incubation at 37°C
Past multocida PA2 = test: MIC, veterinary bacteria; details: veterinary bacteria (Table 2)
P mirabilis 889 = test: MIC, human bacteria, serial dilution in nutrient agar; details: nutrient agar containing 5% 'chocolated' horse blood
E coli E1 = test: MIC, veterinary bacteria; details: veterinary bacteria (Table 2)
[15] = system: M. hyosynoviae ATCC 25591; test: MIC, anti-mycoplasmal, Friis broth solidified with 0.9% agarose; details: inoculum 10^3 to 10^5 C.F.U., 6 days incubation at 37°C
[16] = system: Neisseria catarrhalis 1502; test: MIC, human bacteria, serial dilution in nutrient agar; details: Neisseria catarrhalis 1502 (footnote a); nutrient agar containing 5% 'chocolated' horse blood
M. suipneumoniae LABER = test: MIC, anti-mycoplasmal, Friis broth solidified with 0.9% agarose; details: inoculum 10^3 to 10^5 C.F.U., 6 days incubation at 37°C
Bord bronchiseptica BO8 = test: MIC, veterinary bacteria; details: veterinary bacteria (Table 2)
Past Haemolytica PA5 = test: MIC, veterinary bacteria; details: veterinary bacteria (Table 2)
Strep agalactiae SPA1 = test: MIC, veterinary bacteria; details: veterinary bacteria (Table 2)
M. suipneumoniae TAM 6N = test: MIC, anti-mycoplasmal, Friis broth solidified with 0.9% agarose; details: inoculum 10^3 to 10^5 C.F.U., 6 days incubation at 37°C
[17] = system: Corynebacterium pyogenes CY1; test: MIC, veterinary bacteria; details: veterinary bacteria (Table 2)
[18] = system: M. suipneumoniae PW/C/210; test: MIC, anti-mycoplasmal, Friis broth solidified with 0.9% agarose; details: inoculum 10^3 to 10^5 C.F.U., 6 days incubation at 37°C
Staph aureus Oxford [19] = test: MIC, veterinary bacteria; details: veterinary bacteria (Table 2)
M. suipneumoniae Str. 11 = test: MIC, anti-mycoplasmal, Friis broth solidified with 0.9% agarose; details: inoculum 10^3 to 10^5 C.F.U., 6 days incubation at 37°C
M. suipneumoniae MS 16 = test: as above; details: inoculum 10^3 to 10^5 C.F.U., 6 days incubation at 37°C

Q: How did the MIC (Strep dysgalaciae SPD1) turn out when 5-Acetylpentyl monate A [Example 7] was run?
A: .312 µg/mL

Q: What about the MIC [1] of the same substance?
A: 40 µg/mL

Q: What about the MIC (Ps aeruginosa 10662) of the same substance?
A: >100 µm/ml

Q: And the MIC (Staph aureus Russell)?
A: 1.0 µm/ml

Q: And the MIC [2]?
A: 0.2 µm/ml

Q: And the “in vitro MIC” value (M. hyorhinis ATCC 25021)?
A: 0.1 µg/mL

Q: What about the MIC (Strep pyogenes C 2761) of the same substance?
A: 2.5 µm/ml

Q: What about the MIC [3] of the same substance?
A: .625 µg/mL

Q: And the “in vitro MIC” value (M. suipneumoniae JF 435)?
A: 0.25 µg/mL

Q: And the MIC (K aerogenes A)?
A: >100 µm/ml

Q: What about the “in vitro MIC” value (M. suipneumoniae HK(2)) of the same substance?
A: 0.5 µg/mL

Q: What about the MIC [4] of the same substance?
A: 5 µg/mL

Q: What about the MIC (Bacillus subtilis 6633) of the same substance?
A: 0.5 µm/ml

Q: And the MIC [5]?
A: 0.1 µm/ml

Q: What about the “in vitro MIC” value (M. gallisepticum S6) of the same substance?
A: 2.5 µg/mL

Q: And the MIC (Staph aureus W2827)?
A: 2.5 µm/ml

Q: What about the MIC (E coli NCTC 10418 [6]) of the same substance?
A: 80 µg/mL

Q: What about the MIC (S dublin S7) of the same substance?
A: >80 µg/mL

Q: What about the MIC (S typhimurium S18) of the same substance?
A: >80 µg/mL

Q: What about the “in vitro MIC” value (M. bovis NCTC 10131) of the same substance?
A: <0.01 µg/mL

Q: And the “in vitro MIC” value [7]?
A: 0.5 µg/mL

Q: What about the MIC (E coli NCTC 10418 [8]) of the same substance?
A: >100 µm/ml

Q: What about the “in vitro MIC” value [9] of the same substance?
A: 0.25 µg/mL

Q: And the MIC (Strep pyogenes B 2788)?
A: 2.5 µm/ml

Q: And the “in vitro MIC” value [10]?
A: 0.5 µg/mL

Q: What about the MIC (Strep pneumoniae CN33) of the same substance?
A: 0.5 µm/ml

Q: What about the MIC [11] of the same substance?
A: .625 µg/mL

Q: And the “in vitro MIC” value (M. suipneumoniae UCD 1)?
A: 0.5 µg/mL

Q: What about the MIC (Strep uberis SPU1) of the same substance?
A: .156 µg/mL

Q: And the MIC (Past multocida PA1)?
A: .625 µg/mL

Q: What about the MIC [12] of the same substance?
A: 0.5 µm/ml

Q: And the MIC (Staph aureus Oxford [13])?
A: 1.0 µm/ml

Q: What about the “in vitro MIC” value (M. hyorhinis ATCC 23234) of the same substance?
A: 0.1 µg/mL

Q: And the MIC (Bord bronchisptica BO9)?
A: 5 µg/mL

Q: And the MIC (Strep pyogenes A 64/848)?
A: 0.5 µm/ml

Q: And the “in vitro MIC” value (M. suipneumoniae NB12)?
A: 0.25 µg/mL

Q: What about the “in vitro MIC” value (M. dispar NCTC 10125) of the same substance?
A: 0.05 µg/mL

Q: What about the “in vitro MIC” value (M. pneumoniae ATCC 15492) of the same substance?
A: 0.5 µg/mL

Q: What about the MIC (E coli ESS) of the same substance?
A: 0.5 µm/ml

Q: And the MIC (Strep faecalis I)?
A: >100 µm/ml

Q: And the “in vitro MIC” value [14]?
A: 0.025 µg/mL

Q: What about the MIC (Past multocida PA2) of the same substance?
A: .312 µg/mL

Q: And the MIC (P mirabilis 889)?
A: >100 µm/ml

Q: What about the MIC (E coli E1) of the same substance?
A: >80 µg/mL

Q: And the “in vitro MIC” value [15]?
A: 0.025 µg/mL

Q: What about the MIC [16] of the same substance?
A: ^a0.5 µm/ml

Q: And the “in vitro MIC” value (M. suipneumoniae LABER)?
A: 0.25 µg/mL

Q: And the MIC (Bord bronchiseptica BO8)?
A: 40 µg/mL

Q: And the MIC (Past Haemolytica PA5)?
A: 5 µg/mL

Q: And the MIC (Strep agalactiae SPA1)?
A: .625 µg/mL

Q: And the “in vitro MIC” value (M. suipneumoniae TAM 6N)?
A: 0.5 µg/mL

Q: What about the MIC [17] of the same substance?
A: >80 µg/mL

Q: And the “in vitro MIC” value [18]?
A: 0.25 µg/mL

Q: What about the MIC (Staph aureus Oxford [19]) of the same substance?
A: .625 µg/mL

Q: And the “in vitro MIC” value (M. suipneumoniae Str. 11)?
A: 0.25 µg/mL

Q: And the “in vitro MIC” value (M. suipneumoniae MS 16)?
A: 0.25 µg/mL

— patent EP0025288A1, “Derivatives of monic acid, processes for their preparation, compositions containing them and their preparation” (priority 1979, dated 1981)
